Entries after “also recorded” stand apart in the source; their conditions may differ.
How the values were obtained:
hippocampus of TBI rats [1] = test: Controlled cortical impact TBI: hippocampal immunofluorescence; type: in vivo, rat
Experimental: (§1) This study used male Sprague-Dawley rats weighing 300-350 g and aged 8 weeks, obtained from DBL Co. (Chungcheongbuk-do, Republic of Korea). The rats were housed in a controlled environment with a temperature of 20 ± 2 °C, a relative humidity of 55 ± 5%, and a 12-hour light/dark cycle. They were provided ad libitum access to food and water. To minimize stress associated with transportation, animals underwent a one-week acclimatization period before the start of the experiments. All experimental procedures were conducted in compliance with the guidelines of the National Institutes of Health for the care and use of laboratory animals and were approved by the Hallym University Institutional Animal Care and Use Committee (protocol # Hallym 2022-23, approved on July 15, 2022). This manuscript follows the principles outlined in the Animal research: reporting in vivo experiments (ARRIVE) guidelines.
A controlled cortical impact (CCI) model was used to induce TBI in rats. Animals were anesthetized with 1-1.5% isoflurane in a 30:70 oxygen-to-nitrous oxide mixture and securely positioned in a stereotaxic frame. A 3 mm craniotomy was performed using a portable drill at a site 2.8 mm lateral to the midline and 3.0 mm posterior to Bregma. TBI was induced using an Impact One™ Stereotaxic Impactor (Leica Biosystems) equipped with a 3 mm flat-tip, set to deliver an impact at a velocity of 5 m/s and a depth of 3 mm. Throughout the procedure, body temperature was maintained at 36-37.5°C using a homeothermic blanket system to prevent hypothermia. […] At designated time points (3 hours, 24 hours, or 2 weeks post-injury), animals were euthanized via transcardial perfusion with saline, followed by 4% paraformaldehyde (PFA). Brains were post-fixed in 4% PFA for 1 hour, cryoprotected in 30% sucrose, and sectioned at a 30 μm thickness using a cryostat microtome (CM1850; Leica, Wetzlar, Germany). Brain sections were stored in cryoprotectant solution at 4°C until further analysis.
Brain tissues were initially treated with 1.2% hydrogen peroxide at room temperature for 15 minutes to block endogenous peroxidase activity. Following this step, the tissues were washed three times in PBS for 10 minutes each. The tissues and fixed primary neurons were incubated overnight at 4°C with primary antibodies diluted in antibody diluent. […]. After incubation with primary antibodies, tissues were washed in PBS and incubated for 2 hours at room temperature on a shaker with fluorescent-conjugated secondary antibodies (1:250, Invitrogen). All samples were counterstained with DAPI (1:1000, Invitrogen) to visualize cell nuclei. The stained tissues were mounted on gelatin-coated slides, air-dried, and coverslipped using DPX mounting medium. To evaluate the fluorescent signals of labeled proteins, observations were performed using a Zeiss LSM 710 confocal microscope (Carl Zeiss) with sequential scanning mode for DAPI and Alexa 488 and 594. Stacks of images (1024 × 1024 pixels) from consecutive slices of 0.5-0.8 μm in thickness were obtained by averaging fifteen scans per slice, processed using ZEN 2 (blue edition, Carl Zeiss).

[2] = test system: LAMP2 in primary hippocampal neurons; test: Scratch injury: LAMP2 Western blot; type: cell-based, rat; conditions: scratch-AMX vs scratch-vehicle, 24 hours after scratch
Experimental: Primary hippocampal neurons were obtained from embryonic day 18 (E18) Sprague-Dawley rat embryos. Pregnant rats were anesthetized using 2-3% isoflurane in a gas mixture of 70% nitrous oxide and 30% oxygen. Following euthanasia, the hippocampi were carefully dissected, minced, and enzymatically dissociated using TrypLE Express (Gibco, NY, USA) for 10 minutes at 37°C. The tissue was further mechanically dissociated using fire-polished glass pipettes, and the resulting cell suspension was filtered through a 70 μm cell strainer to remove debris. Neurons were seeded at a density of 3 × 10^5 cells per well in 24-well plates pre-coated with poly-L-lysine (Sigma-Aldrich, Saint Louis, MO, USA). Cells were maintained in neurobasal medium supplemented with B-27 (Thermo Fisher Scientific, Waltham, MA, USA), GlutaMAX (Gibco), and penicillin-streptomycin. […]
A scratch injury model was used to mimic TBI in vitro. […] After the treatment period, neuronal damage and recovery were assessed using appropriate evaluation methods.
Twenty-four hours after the scratch injury, cells were lysed using RIPA buffer (IBS-BR002, iNtRON, Republic of Korea) supplemented with protease and phosphatase inhibitors (Sigma, USA). […] Protein detection was performed using a chemiluminescence bioimaging device (Amersham Imager 680, Cytiva, MA, USA), and the results were analyzed to determine protein expression levels.

[3] = test system: ipsilateral hippocampus of TBI rats; test: Controlled cortical impact TBI: IgG extravasation (BBB integrity); type: in vivo, rat; conditions: 24 hours and 2 weeks post-TBI
Experimental: as §1
(§2) A controlled cortical impact (CCI) model was used to induce TBI in rats. Animals were anesthetized with 1-1.5% isoflurane in a 30:70 oxygen-to-nitrous oxide mixture and securely positioned in a stereotaxic frame. A 3 mm craniotomy was performed using a portable drill at a site 2.8 mm lateral to the midline and 3.0 mm posterior to Bregma. […]

hippocampus of TBI rats [4] = test: Controlled cortical impact TBI: NeuN immunohistochemistry; type: in vivo, rat; conditions: CA1, CA3, GCL, hilus, 2 weeks post-TBI, vs TBI-vehicle
Experimental: as §1, §2

[5] = hippocampal regions, 24 hours after TBI
[6] = hippocampus, 24 hours after TBI

With `CC(C)c1ccc2oc3nc(N)c(C(=O)O)cc3c(=O)c2c1` [AMX, amlexanox] the “hippocampal PDE4 expression (immunofluorescence)” value (hippocampus of TBI rats [1]; 3 hours post-TBI) was “markedly reduced PDE4 expression”, the “4HNE staining (lipid peroxidation)” value (hippocampus of TBI rats [1]; [5]) was “significantly reduced 4HNE staining” and the “CD86 staining (M1 polarization)” value (hippocampus of TBI rats [1]; [5]) was “decreased Iba-1 and CD86 staining”. For the same molecule, the “Iba-1 staining (microglial activation)” value (hippocampus of TBI rats [1]; [5]) was “decreased Iba-1 and CD86 staining”, the “p-p38 levels (immunofluorescence)” value (hippocampus of TBI rats [1]; hippocampal regions, 24 hours post-TBI, vs TBI-vehicle) was “significantly reduced p-p38 levels” and the C3 intensity (hippocampus of TBI rats [1]; [6]) was “lower GFAP and C3 intensity”. For the same molecule, the “GFAP intensity (astrocytic activation)” value (hippocampus of TBI rats [1]; [6]) was “lower GFAP and C3 intensity”, the LAMP2 expression [2] was “significantly preserved” and the “IgG extravasation (BBB integrity)” value [3] was “reduces this leakage; also recorded: significantly reduced IgG extravasation”. The NeuN-positive cell counts (hippocampus of TBI rats [4]) was “higher NeuN-positive cell counts”.

— paper PMC12320245 (International Journal of Biological Sciences, 2025)
